This note sets out measurements from patent US8580728B2, “Use of fragrance compositions for the prevention of the development of indole base malodours from fecal and urine based soils” (Takasago International Corporation, priority 2006, dated 2013).

The series in a line: Decrease of fragrance compound concentration during the indole inhibition test (GCMS). It is filed as physicochemical. More on the design: key: Y = Yes. The note with it: 24 hours in fresh human urine, room temperature; for Decrease in Fragrance Compounds after 24 hours (%): >60%: category >60% decrease; for Decrease in Fragrance Compounds after 24 hours (%): 0-30%: category 0-30% decrease. On the procedure:
Advantageously, the appropriate fragrance compounds may be selected by using the following preferred indole inhibition test which comprises the following steps: • A) 0.02 g of fragrance and 0.02 g of Tergitol 15-s-12 was added to 7 g of fresh human urine in a 20 ml Headspace vial sealed with a PTFE faced septum and well mixed for 10 minutes using a magnetic stirrer. For a blank to test the suitability of a batch of fresh human urine, 7 g of human urine was used with 0.02 g of demineralised water and 0.02 g of Tergitol 15-s-12. If a control was required, to test the efficacy of product base for example, the control contained 7 g of human urine to which was added 0.02 g of fragrance, minus the active agents and 0.02 g of Tergitol 15-s-12. • B) The vials are placed in an autosampler tray at room temperature. • C) At different times the headspace in the vials is sampled for 5 minutes at 35° C. by an SPME fibre (PDMS fibre ex Supelco) after 10 minutes at 35° C. (incubation time). • D) The SPME fibre is desorbed 1 minute at 265° C. from a CTC Combipal autosampler and injected in splitless mode onto an Agilent GC-MS 5973N with a HP-INNOWAX column (30 m×0.25×0.25). (Oven conditions: 50° C. during 2 min-to 250° C. at 10° C./min-250° C. during 5 minutes). • E) Under the above GC-MS conditions, indole has a retention time of 19.14 minutes, and can be recognised by its characteristic ions (m/z 117, m/z 89 and m/z 90). • F) In the range of values determined in this work, the area of the indole peak (117) is linearly related to the actual concentration in the vial, and was used without further correction to establish the concentration of indole in “Active” and “Blank” and if present any “Control” fragrances. • G) The material is deemed to be active if the indole concentration in the test sample is below 0.01 ppm (wt/wt) after 24 hours incubation at room temperature and the indole in the blank samples is between 0.25 ppm (wt/wt) and 1.25 ppm (wt/wt) indole after 24 hours storage at room temperature. • H) The change in the active ingredient concentration is determined by comparing measurements at the start of the experiment and after 24 hours using appropriate characteristic ions.
This can be determined by measuring the fragrance concentration in the sample containing the test cocktail at the start and end of the indole inhibition test as described in step I of the test. If the difference between the measurements is less than 60% preferably less than 30% then the material is considered as not to have changed sufficiently to alter the fragrance note and to be particularly preferred.
A sample of fresh human urine is divided into equal portions and a fragrance containing one or more of the effective materials was added as described in the Indole Inhibition Test. […] The samples were stored and after 24 hours the indole content and fragrance active content is measured by gas chromatography with mass spectrometric (GCMS) detection. Those formulations containing active ingredients prevented the formation of indole while both the unfragranced and the alcohol containing control samples had much greater quantities of indole present. Also for the active compounds a GCMS measurement indicated the extent to which the compound was itself consumed as part of the process. In table 2 the decrease in fragrance components has been classified into 3 categories and the letter Y indicates the appropriate category for the compounds which have been measured. The absence of a letter Y in any category means that the decrease has not been measured for that compound.

As for `CCCCCCCCCCC=O` [Aldehyde C11], the “Decrease in Fragrance Compounds after 24 hours (%): >60%” value is reported as “Y”.

With `O=Cc1ccccc1` [Benzaldehyde], the “Decrease in Fragrance Compounds after 24 hours (%): 0-30%” value (shortened to “Decrease in Fragrance Compounds … 0-30%”) is “Y”.

As to `O=C/C=C/c1ccccc1` [Cinnamic aldehyde], the “Decrease in Fragrance Compounds … 0-30%” value is listed as “Y”.

Consider `CC(C)=CCCC(C)=CC=O` [Citral], for which the “Decrease in Fragrance Compounds … 0-30%” value is given as “Y”.

As to `C=C(C)C1CC=C(C=O)CC1` (stereo not shown) [Perilla aldehyde], the “Decrease in Fragrance Compounds … 0-30%” value was “Y”.

On to `CCC/C=C/C=O` [Trans 2 hexenal], for which the “Decrease in Fragrance Compounds after 24 hours (%): 0-60%” value (category 0-60% decrease) was “Y”.

With `CCc1occc(=O)c1O` [Veltol Plus], the “Decrease in Fragrance Compounds after 24 hours (%): >60%” value is reported as “Y”.
